In data set [1] the target is T1, CTD (C-terminal domain of HIV-1 capsid protein CA) (Human immunodeficiency virus type 1 group M subtype B, UniProt P04591).
T1 construct: CA protein and the isolated CTD (either unlabelled or labelled) were purified as described previously; made in house
In words: CTD binding by fluorescence titration. The note with it: 20 µM wild-type dimeric CTD, 25°C, 50 mM phosphate buffer pH 7.0, 1:1 binding isotherm, read-out: CTD-binding K D. On the procedure: Spectra were collected on a Cary Eclipse spectrofluorimeter (Varian, CA, USA). A concentration of 20 µM CTD and increasing peptide concentrations were used for titration experiments carried out at 25°C in 50 mM phosphate buffer pH 7.0. Excitation wavelength was 280 nm or 295 nm, and emission fluorescence was collected between 300 nm and 400 nm. The excitation and emission slits were set to 5 nm. The response time was 1 s. The dissociation constant of each complex was calculated by fitting the changes observed either in: (i) the fluorescence intensity at a particular wavelength; or (ii) the value of the average energy <λ> [42] for a fixed CTD concentration versus the concentration of added peptide as described.

Data set [2] in a line: Solubility under the conditions of the NMR experiments. The data set is classed as physicochemical. As to conditions: aqueous buffer, long incubations at a relatively high temperature, 50 mM phosphate buffer pH 7.0, read-out: Concentration at which the peptide remained fully soluble. On the procedure:
NMR spectra were acquired at 20°C on a Bruker Avance DRX-500 spectrometer (Bruker GmbH, Germany) equipped with a triple resonance probe and z-pulse field gradients. Sodium trimethylsilyl [2,2,3,3-^2H4] propionate (Sigma) was used as the internal chemical shift reference in the homonuclear experiments. All experiments were carried out in 50 mM phosphate buffer pH 7.0. Assignments of the heteronuclear single quantum coherence (HSQC) NMR spectra were those previously obtained for the monomeric CTD [43], [44].
We first analyzed whether the CAC1-derived peptides CAC1C and CAC1M had any tendency to self-associate. […] The hydrodynamic radius (Rh) of the three peptides was similar (Table 1).

For data set [3], the system named is U87-CD4-CXCR4 cells. As to conditions: without cell-penetrating peptide; cited from earlier work.
Another data set has as its system HIV-1 strain HXB2. The data set is described as follows: Inhibition of HIV-1 production and infection in cultured cells (p24 antigen). The class given is cell-based. As to conditions: U87-CD4-CXCR4 cells, Chariot-mediated transport. The method, then: U87-CD4-CXCR4 cells from cultured monolayers were collected using 0.25% trypsin and resuspended in DMEM supplemented with 10% FBS (without antibiotics). Cells were seeded in 96-well plates at a density of 3.5×10^4 cells/well and incubated for 24 h. Then, the cells were incubated as described above with mixtures of the corresponding peptides and the Chariot peptide at the appropriate concentrations. After three hours of incubation, the cells were washed with PBS and infected with HIV-1 at a multiplicity of infection of 0.0015 (0.0015 TCID50/cell). After incubation for 2 h at 37°C, the cells were washed with PBS and DMEM supplemented with 10% FBS, 0.5 mg/ml geneticin and 1 µg/ml puromycin were added, and the infected cells were further incubated at 37°C. Viral replication was quantified by measuring HIV-1 CA (p24 antigen) production in the culture supernatant 72 h after infection, using an enzyme-linked immunoassay (INNOTEST HIV-antigen, Innogenetics).

Data set [4] relates to U87-CD4-CXCR4 cells. The data set is described as follows: Transport of peptides into cells (fluorescence microscopy, flow cytometry). The class given is cell-based, Human. The note with it: rhodamine-labelled peptides in complex with Chariot 1:1, 3 h at 37°C. The method, then:
To transport the peptides into NB324K or U87-CD4-CXCR4 cells a commercial cell-penetrating peptide (Chariot, Active Motif) was used, according to the manufacturer's recommendations. For fluorescence microscopy analyses, Chariot-peptide binding was accomplished by incubating a mixture containing between 5 µg and 50 µg of either FITC-labelled peptide or rhodamine-labelled peptide and the Chariot peptide at a 1∶1 molar ratio in 100 µl aliquots. Each 100 µl aliquot of the preincubated mixture was added to one well of a 24-well plate containing NB324K or U87-CD4-CXCR4 seeded the previous day (5·10^4 and 1.5·10^5 cells/well, respectively) and 100 µl of serum-free DMEM medium were added. The cells were incubated for 1–3 h, 800 µl DMEM containing 10% FBS were added, and incubation was continued for 1 h. Cells were fixed with a 1∶1 methanol∶acetone solution, their nucleus were stained with 4′,6-diamidino-2-phenylindol dihydrochloride (DAPI, Calbiochem), and cells were examined and imaged using an Axiovert200 (Zeiss) fluorescence microscope and/or a LSM-510 (Zeiss) confocal fluorescence microscope.
FITC-labelled peptides were transported into NB324K or U87-CD4-CXCR4 cells as described above. […] The resuspended cells were analyzed in a FACSCalibur flow cytometer (Becton Dickinson, USA).

A further data set has as its target T2, HIV-1 capsid protein CA (Human immunodeficiency virus type 1 group M subtype B, UniProt P04591).
T2 construct: CA protein and the isolated CTD (either unlabelled or labelled) were purified as described previously; made in house
The data set is described as follows: CA polymerization in vitro (turbidity at 350 nm) with Ficoll-70 crowding agent. As to conditions: 20 µM CA. The class given is biochemical. The method, then: Assembly reactions were carried out as described previously, [53] with some modifications. In general, the polymerization mixtures contained 50 mM sodium phosphate buffer pH 7.4, 2.25 M NaCl, 20 µM CA, and 100 g/l Ficoll-70 (GE HealthCare) as a macromolecular crowding agent. Where indicated, Ficoll-70 was omitted and the final CA concentration was raised to 46 µM. The experiments were initiated by introducing an appropriate volume of a CA solution in 50 mM phosphate buffer into a spectrophotometer cuvette (10-mm pathlength, 20 mm^2 internal section), and the assembly reaction was triggered by adding the appropriate volume of a solution containing 4 M NaCl, 179 g/l Ficoll-70 in 50 mM sodium phosphate buffer pH 7.4, to get the final concentrations desired for each component in a final volume of 500 µl, followed by rapid mixing by repeated inversion of the cell. The pH of the final reaction mixture was checked in a test sample. For inhibition assays, CA was mixed with the appropriate amounts of the peptides, and incubated for 30 minutes before triggering the reaction as indicated above. The time-dependent increase in the optical density at 350 nm as a measure of the light scattered by the assembled particles was monitored at 25°C using a UV-1603 spectrophotometer (Shimadzu, Japan), with data points collected every six seconds. Traces of the variation in the turbidity were analyzed as described previously, [53].

Setting [5] is: peptide:CA molar ratio of 5, 100 g/l Ficoll-70.

Peptide text beside a SMILES is read from it.

Consider `CSCC[C@H](NC(=O)[C@H](Cc1c[nH]c2ccccc12)NC(=O)[C@H](C)NC(=O)[C@H](CCCCN)NC(=O)[C@@H](NC(=O)[C@H](CO)NC(=O)[C@H](CO)NC(=O)[C@H](CO)NC(=O)[C@H](C)NC(=O)[C@H](CO)NC(=O)[C@@H](N)CCC(=O)O)C(C)C)C(=O)N[C@H](C(=O)N[C@@H](CCC(=O)O)C(=O)N[C@H](C(=O)N[C@@H](CC(C)C)C(=O)N[C@@H](CC(C)C)C(=O)N[C@H](C(=O)N[C@@H](CCC(N)=O)C(=O)N[C@@H](CC(N)=O)C(=O)N[C@@H](C)C(N)=O)C(C)C)[C@@H](C)O)[C@@H](C)O` [CAC1C] (H-ESASSSVKAWMTETLLVQNA-NH2), for which the Kd in data set [1] is 19 ± 8 µM. Moreover, in data set [2], the solubility is at least 200 µM.

In the case of ITFEDLLDYYGP [CAI], the “Ability of the peptide to penetrate cells” value with U87-CD4-CXCR4 cells [3] was “unable to penetrate cells”. For the same molecule, the “Inhibitory activity of single peptides on HIV-1 production ex vivo” value with HIV-1 strain HXB2 (MOI 0.0015, p24 at 72 h, H4 tested up to close to 2 mM) is “at most a weak inhibitory activity”. In the data set with HIV-1 strain HXB2 (p24 at 72 h), the “Peptide concentration required for weak inhibitory activity on HIV-1 production ex vivo” value is reported as above 1 mM. For the same molecule, the “Chariot-mediated transport of peptides into HIV-1-susceptible cells” value in the data set with U87-CD4-CXCR4 cells [4] is listed as “had been achieved”. The “Inhibition of in vitro assembly of HIV-1 capsid-like particles, single inhibitor” value on HIV-1 capsid protein CA (100 g/l Ficoll-70, 2.25 M NaCl, pH 7.4, 25°C, 30 min preincubation, inhibitor:CA molar ratios up to 10 (CAI 0.1-0.5)) is reported as “very efficient”.

As for `CSCC[C@H](NC(=O)[C@H](Cc1c[nH]c2ccccc12)NC(=O)[C@H](C)NC(=O)[C@H](CCCCN)NC(=O)[C@@H](NC(=O)[C@H](CO)NC(=O)[C@H](CO)NC(=O)[C@H](C)NC(=O)[C@H](C)NC(=O)[C@H](CO)NC(=O)[C@H](CCC(=O)O)NC(=O)[C@@H](N)CO)C(C)C)C(=O)N[C@H](C(=O)N[C@@H](CCC(=O)O)C(=O)N[C@H](C(=O)N[C@@H](CC(C)C)C(=O)N[C@@H](CC(C)C)C(=O)N[C@H](C(=O)N[C@@H](C)C(=O)N[C@@H](CC(N)=O)C(=O)N[C@H](C(=O)N[C@@H](CO)C(=O)N[C@@H](CO)C(N)=O)[C@@H](C)O)C(C)C)[C@@H](C)O)[C@@H](C)O` [CAC1M] (H-SESAASSVKAWMTETLLVANTSS-NH2), the Kd in data set [1] came to 8 ± 1 µM. For the same molecule, the solubility in data set [2] was at least 200 µM. Moreover, the “Chariot-mediated transport of peptides into HIV-1-susceptible cells” value in the data set with U87-CD4-CXCR4 cells [4] is “had been achieved”. Moreover, on HIV-1 capsid protein CA (setting [5]), the “Higher reduction in polymerization rate compared to CAC1” value was around 30% and the “Higher reduction in total capsid production compared to CAC1” value is listed as “about 20%”.

These data come from article PMC3169566, “Rationally Designed Interfacial Peptides Are Efficient In Vitro Inhibitors of HIV-1 Capsid Assembly with Antiviral Activity” (PLoS ONE, 2011).
